Experiments:
Balb/c 3T3 cells [1] = experiment: MTT assay (mitochondrial activity), 72 h exposure; assay type: cell-based, murine; details: Balb/c 3T3, MTT, mean ± SD, n = 3
Procedure: (§1) The human hepatoma (HepG2) and colorectal adenocarcinoma (Caco-2) cells were purchased from the American Type Culture Collection: ATCC HB-8065 and ATCC HTB-37, respectively. These cells were cultured in Minimum Essential Medium Eagle (MEME) (ATCC). The murine fibroblasts cell line (Balb/c 3T3 clone A31) (gift from the Department of Swine Diseases of the National Veterinary Research Institute in Pulawy) was cultured in Dulbecco’s Modified Eagle Medium (DMEM) (ATCC). The media were supplemented with 10% BCS (Balb/c 3T3), 10% FBS (HepG2), 20% FBS (Caco-2), 1% L-glutamine, 1% antibiotic solution. The cells were maintained in 75 cm^2 cell culture flasks (NUNC) in a humidified incubator at 37 °C in an atmosphere of 5% CO2. The medium was refreshed every two or three days, and the cells were trypsinized by 0.25% trypsin–0.02% EDTA after reaching 70–80% confluence. Single cell suspensions were prepared and adjusted to a density of 2 × 10^5 cell/mL^−1 (HepG2), 1 × 10^5 cell/mL^−1 (Caco-2) and 5 × 10^4 cell/mL^−1 (Balb/c 3T3). The cell suspension was transferred to 96-well plates (100 µL/well) and incubated for 24 h before the exposure to the studied compounds. Stock solutions of ligands and metal complexes were prepared in sterile water and diluted with culture medium to obtain a concentration range from 0.1 to 10 µM. The final concentration of sterile water was 0.1% in the medium. […] As a negative control, cultured cells were grown in the absence of studied compounds. Each concentration was tested in six replicates in three independent experiments. Cytotoxicity was assessed after 72 h of exposure of the cells to compounds. The medium was not changed during the incubation time.
The metabolic activity of living cells was assessed by the measurement of the activity of dehydrogenases. […] The plate was shaken for 15 min at room temperature and transferred to a microplate reader Synergy HTX multi-mode reader (BioTek® Instruments Inc., Winooski, VT, USA) to measure the absorbance at 570 nm, using a blank as a reference. Cytotoxicity was expressed as a percentage of the negative control. […]

Balb/c 3T3 cells [2] = experiment: NRU assay (lysosomal activity), 72 h exposure; assay type: cell-based, murine; details: Balb/c 3T3, NRU, mean ± SD, n = 3
Procedure: as §1
This method is based on staining living cells with neutral red, which readily diffuses through the plasma membrane and accumulates in lysosomes. […] After 10 min of shaking, the absorbance of the dissolved NR was measured using a Synergy HTX multi-mode reader (BioTek® Instruments Inc., Winooski, VT, USA) at 540 nm using a blank as a reference. Cytotoxicity was expressed as a percentage of the negative control. […]

HepG2 cells = experiment: LDH leakage assay (membrane integrity), 72 h exposure; assay type: cell-based, human; details: mean ± SD, n = 3
Procedure: as §1
(§2) The integrity of the plasma membrane was assessed through the test of lactate dehydrogenase (LDH) release, which was monitored using the commercially available Cytotoxicity Detection Kit (LDH) (Roche Diagnostics, Warsaw, Poland). […] The absorbance was measured at 492 nm in a microplate reader Synergy HTX multi-mode reader (BioTek® Instruments Inc., Winooski, VT, USA) using a blank as a reference. […]

Balb/c 3T3 cells [3] = experiment: as above; assay type: cell-based, murine; details: Balb/c 3T3, LDH, mean ± SD, n = 3
Procedure: as §1, §2

Balb/c 3T3 cells [4] = experiment: TPC assay (total protein content), 72 h exposure; assay type: cell-based, murine; details: Balb/c 3T3, TPC, mean ± SD, n = 3
Procedure: as §1
This assay is based upon staining the total cellular protein (proliferation). […] The absorbance was measured at 595 nm in a microplate reader Synergy HTX multi-mode reader (BioTek® Instruments Inc., Winooski, VT, USA) using a blank as a reference. Cytotoxicity was expressed as a percentage of the negative control. […]

In the case of `N.N.[Cl][Pt][Cl]` [Cisplatin, cisplatin], the IC50 (Balb/c 3T3 cells [1]) is reported as over 10 µM, the IC50 (Balb/c 3T3 cells [2]) is reported as over 10 µM and the IC50 (HepG2 cells) is reported as under 0.1 µM. The IC50 (Balb/c 3T3 cells [3]) was over 10 µM and the IC50 (Balb/c 3T3 cells [4]) was over 10 µM.
